Measured values published in patent US20240239790A1, “7-Morpholino-1,6-Naphthyridin-5-yl Derivatives and Pharmaceutical Compositions Thereof Useful as DNA-PK Inhibitor” (adMare Therapeutics Society, priority 2021, published 2024).

Legend:
[1] = Hepatocyte Stability Assay, mouse hepatocytes; format: in vitro ADME; conditions: for hepatocyte CLint at 1 uM: male, CD-1, cryopreserved hepatocytes, pH 7.3, mouse hepatocytes 0.7 million cells per mL, 1 uM compound; for Hepatocyte Stability Mouse % rem. 120 min: mouse hepatocytes
Protocol: Cryopreserved mouse hepatocytes were obtained from a pool of 10 or more male CD-1 mice. Cryopreserved human hepatocytes were obtained from a pool of 10 or more donors of mixed gender. Final hepatocyte density was 0.7 million viable cells per mL and test compound concentration was 1 uM with a maximum of 0.01% DMSO. Cryopreserved hepatocytes were thawed, washed, and resuspended in Krebs-Heinslet buffer (pH 7.3). The reaction was initiated by adding the test compound into cell suspension and incubated for 0, […], 1, 1.5, and 2 h, respectively, at 37° C./5% C02. The reaction was stopped by adding acetonitrile into the incubation mixture. Samples were then mixed, transferred completely to another 96-well plate, and centrifuged. Supernatants were used for HPLC-MS/MS analysis. […] Peak areas corresponding to the test compound were recorded.

[2] = biological target: T1, DNA-PK phosphorylation at Serine 2056 (Homo sapiens, UniProt P78527); experiment: Cellular Assay for Inhibition of DNA-PK Phosphorylation at Serine 2056 in FaDu cells (sandwich ELISA, neocarzinostatin); format: cell-based; conditions: pSer2056 DNA-PK, neocarzinostatin 1 μg/mL, Table 1
T1 construct: FaDu cells were purchased from ATCC; host or cells: FaDu
In short: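 FaDu cells pre-treated with compound (0.3% DMSO) for 1 h, then neocarzinostatin 1 μg/mL final added for 2 h to induce DSBs. Protein-normalised lysates read by sandwich ELISA for total and pSer2056 DNA-PK; % inhibition normalised between DMSO and NCS controls, IC50 from variable-slope log(inhibitor) fit.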

[3] = Microsomal Stability Assay, mouse liver microsomes; format: in vitro ADME; conditions: for microsomal CLint at 0.1 uM: male, CD-1, pH 7.4, mouse liver microsomes 0.1 mg/mL, 0.1 uM compound; for Microsomal Stability Mouse % rem. 60 min: mouse liver microsomes
Protocol: Samples were then mixed and centrifuged. Supernatants were used for HPLC-MS/MS analysis. […] Peak areas corresponding to the test compound were recorded.

hepatocyte CLint at 1 uM [1] [µL/min/1e6 cells]	Hepatocyte Stability Mouse % rem. 120 min [1]	IC50 [2] [nM]	microsomal CLint at 0.1 uM [3] [µL/min/mg]	Microsomal Stability Mouse % rem. 60 min [3]	Structure (SMILES)
< 8.2	G (% remaining = 50-75%)	100 to 1000	< 116	F (% remaining = 25-50%)	c1cnc2cc(N3CCOCC3)nc(O[C@H]3CC[C@@H](Nc4ncc(OCCN5CCOCC5)cn4)CC3)c2c1 [Compound 68, N-((1s,4s)-4-((7-Morpholino-1,6-naphthyridin-5-yl)oxy)cyclohexyl)-5-(2-morpholinoethoxy)pyrimidin-2-amine]
> 8.2	F (% remaining = 25-50%)	< 100			O=c1[nH]c2cnc(N[C@H]3CC[C@@H](Oc4nc(N5CCOCC5)cc5ncccc45)CC3)nc2n1C1CCOCC1 [Compound 95, 2-(((1s,4s)-4-((7-Morpholino-1,6-naphthyridin-5-yl)oxy)cyclohexyl)amino)-9-(tetrahydro-2H-pyran-4-yl)-7,9-dihydro-8H-purin-8-one]
< 8.2	G (% remaining = 50-75%)	< 100			Cn1c(=O)n(C2CCOCC2)c2nc(N[C@H]3CC[C@@H](Oc4nc(N5CCOCC5)cc5ncccc45)CC3)ncc21 [Compound 96, 7-Methyl-2-(((1s,4s)-4-((7-morpholino-1,6-naphthyridin-5-yl)oxy)cyclohexyl)amino)-9-(tetrahydro-2H-pyran-4-yl)-7,9-dihydro-8H-purin-8-one]
< 8.2	G (% remaining = 50-75%)	< 100			O=C(Cn1c(=O)n(C2CCOCC2)c2nc(N[C@H]3CC[C@@H](Oc4nc(N5CCOCC5)cc5ncccc45)CC3)ncc21)N1CCOCC1 [Compound 98, 2-(((1s,4s)-4-((7-Morpholino-1,6-naphthyridin-5-yl)oxy)cyclohexyl)amino)-7-(2-morpholino-2-oxoethyl)-9-(tetrahydro-2H-pyran-4-yl)-7,9-dihydro-8H-purin-8-one]
< 8.2	G (% remaining = 50-75%)	< 100			O=C(Cn1c(=O)n(C2CCOCC2)c2nc(N[C@H]3CC[C@@H](Oc4nc(N5CCOCC5)cc5ncccc45)CC3)ncc21)N1CCC1 [Compound 99, 7-(2-(Azetidin-1-yl)-2-oxoethyl)-2-(((1s,4s)-4-((7-morpholino-1,6-naphthyridin-5-yl)oxy)cyclohexyl)amino)-9-(tetrahydro-2H-pyran-4-yl)-7,9-dihydro-8H-purin-8-one]
> 8.2	E (% remaining = 0-25%)	< 100			Cn1c(=O)[nH]c2cnc(N[C@H]3CC[C@@H](Oc4nc(N5CCOCC5)cc5ncccc45)CC3)nc21 [Compound 100, 9-Methyl-2-(((1s,4s)-4-((7-morpholino-1,6-naphthyridin-5-yl)oxy)cyclohexyl)amino)-7,9-dihydro-8H-purin-8-one]
> 8.2	F (% remaining = 25-50%)	< 100			Cn1c(=O)n(C)c2nc(N[C@H]3CC[C@@H](Oc4nc(N5CCOCC5)cc5ncccc45)CC3)ncc21 [Compound 101, 7,9-Dimethyl-2-(((1s,4s)-4-((7-morpholino-1,6-naphthyridin-5-yl)oxy)cyclohexyl)amino)-7,9-dihydro-8H-purin-8-one]
< 8.2	H (% remaining = 75-100%)	< 100			CN(C)C(=O)Cn1c(=O)n(C)c2nc(N[C@H]3CC[C@@H](Oc4nc(N5CCOCC5)cc5ncccc45)CC3)ncc21 [Compound 102, N,N-Dimethyl-2-(9-methyl-2-(((1s,4s)-4-((7-morpholino-1,6-naphthyridin-5-yl)oxy)cyclohexyl)amino)-8-oxo-8,9-dihydro-7H-purin-7-yl)acetamide]
< 8.2	H (% remaining = 75-100%)	10000 to 30000	< 116	H (% remaining = 75-100%)	O=C(O)c1cnc2cc(N3CCOCC3)nc(O[C@H]3CC[C@@H](n4ccnc4)CC3)c2c1 [Compound 165, 5-(((1s,4s)-4-(1H-imidazol-1-yl)cyclohexyl)oxy)-7-morpholino-1,6-naphthyridine-3-carboxylic acid]
		10000 to 30000	< 116	H (% remaining = 75-100%)	CS(=O)(=O)NC(=O)c1cnc2cc(N3CCOCC3)nc(O[C@H]3CC[C@@H](n4ccnc4)CC3)c2c1 [Compound 175, 5-(((1s,4s)-4-(1H-imidazol-1-yl)cyclohexyl)oxy)-N-(methylsulfonyl)-7-morpholino-1,6-naphthyridine-3-carboxamide]
< 8.2	H (% remaining = 75-100%)	100 to 1000			O=S(=O)(CF)Nc1cnc2cc(N3CCOCC3)nc(O[C@H]3CC[C@@H](Nc4ncccn4)CC3)c2c1 [Compound 192, 1-fluoro-N-(7-morpholino-5-(((1s,4s)-4-(pyrimidin-2-ylamino)cyclohexyl)oxy)-1,6-naphthyridin-3-yl)methanesulfonamide]
> 8.2	F (% remaining = 25-50%)	100 to 1000			O=S(=O)(CC(F)F)Nc1cnc2cc(N3CCOCC3)nc(O[C@H]3CC[C@@H](Nc4ncccn4)CC3)c2c1 [Compound 193, 2,2-difluoro-N-(7-morpholino-5-(((1s,4s)-4-(pyrimidin-2-ylamino)cyclohexyl)oxy)-1,6-naphthyridin-3-yl)ethane-1-sulfonamide]
< 8.2	G (% remaining = 50-75%)	100 to 1000			CS(=O)(=O)c1cnc2cc(N3CCOCC3)nc(O[C@H]3CC[C@@H](Nc4ncccn4)CC3)c2c1 [Compound 200b, N-((1s,4s)-4-((3-(methylsulfonyl)-7-morpholino-1,6-naphthyridin-5-yl)oxy)cyclohexyl)pyrimidin-2-amine]
< 8.2	H (% remaining = 75-100%)	100 to 1000			CS(=O)(=O)c1cnc2cc(N3CCOCC3)nc(O[C@H]3CC[C@@H](Nc4ncc(OCC(=O)N5CCOCC5)cn4)CC3)c2c1 [Compound 204a, 2-((2-(((1s,4s)-4-((3-(methylsulfonyl)-7-morpholino-1,6-naphthyridin-5-yl)oxy)cyclohexyl)amino)pyrimidin-5-yl)oxy)-1-morpholinoethan-1-one]
< 8.2	G (% remaining = 50-75%)	< 100			CS(=O)(=O)c1cnc2cc(N3CCOCC3)nc(O[C@H]3CC[C@@H](Nc4ncnc5ccoc45)CC3)c2c1 [Compound 204b, N-((1s,4s)-4-((3-(methylsulfonyl)-7-morpholino-1,6-naphthyridin-5-yl)oxy)cyclohexyl)furo[3,2-d]pyrimidin-4-amine]
< 8.2	G (% remaining = 50-75%)	< 100			CS(=O)(=O)c1cnc2cc(N3CCOCC3)nc(O[C@H]3CC[C@@H](NC(=O)c4ncco4)CC3)c2c1 [Compound 204c, N-((1s,4s)-4-((3-(methylsulfonyl)-7-morpholino-1,6-naphthyridin-5-yl)oxy)cyclohexyl)oxazole-2-carboxamide]
